Reference: ChEMBL document CHEMBL1909046, “DrugMatrix in vitro pharmacology data”

What was measured:
[1] = DRUGMATRIX: Calcium Channel Type L, Benzothiazepine radioligand binding (ligand: [3H] Diltiazem); assay type: cell membranes, Rattus norvegicus, Wistar, Brain, Membrane; details: Not Active = under 50% inhibition at 10 µM
[2] = DRUGMATRIX: Imidazoline I2, Central radioligand binding (ligand: [3H] Idazoxan); assay type: cell membranes, Rattus norvegicus, Wistar, Cerebral cortex, Membrane; details: Not Active = under 50% inhibition at 10 µM
[3] = biological target: T1, Neuropeptide Y receptor type 2 (Homo sapiens, UniProt P49146); assay type: cell membranes, KAN-TS, Membrane; details: kan-ts; also: in other assays of this panel Not Active means under 50% inhibition at 10 µM
T1 sequence (P49146 whole entry): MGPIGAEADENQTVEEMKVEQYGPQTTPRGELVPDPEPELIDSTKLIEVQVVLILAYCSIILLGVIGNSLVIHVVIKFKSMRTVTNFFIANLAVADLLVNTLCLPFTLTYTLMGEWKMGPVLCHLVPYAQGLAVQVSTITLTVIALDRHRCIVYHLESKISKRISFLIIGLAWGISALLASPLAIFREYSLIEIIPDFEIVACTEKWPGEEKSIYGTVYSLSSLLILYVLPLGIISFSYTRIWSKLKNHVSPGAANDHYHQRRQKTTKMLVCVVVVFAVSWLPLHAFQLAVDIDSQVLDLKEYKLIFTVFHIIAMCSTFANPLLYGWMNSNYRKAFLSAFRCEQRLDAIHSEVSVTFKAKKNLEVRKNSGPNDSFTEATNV

[4] = DRUGMATRIX: Phorbol Ester radioligand binding (ligand: [3H] PDBu); assay type: cell membranes, Mus musculus, ICR, Brain, Membrane; details: Not Active = under 50% inhibition at 10 µM
[5] = DRUGMATRIX: Platelet-Derived Growth Factor (PDGF) radioligand binding (ligand: [125I] PDGF); assay type: cell-based; details: nih3t3; Not Active = under 50% inhibition at 10 µM
[6] = biological target: Matrix metalloproteinase-9 (Homo sapiens, UniProt P14780); assay: biochemical; assay type: cell-based;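 also: inhibition of isolated MMP-9 enzyme activity toward a synthetic peptide substrate, from the DrugMatrix protease screening panel; in other assays of this panel Not Active means under 50% inhibition at 10 µM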
Chain of Matrix metalloproteinase-9 (P14780 whole entry): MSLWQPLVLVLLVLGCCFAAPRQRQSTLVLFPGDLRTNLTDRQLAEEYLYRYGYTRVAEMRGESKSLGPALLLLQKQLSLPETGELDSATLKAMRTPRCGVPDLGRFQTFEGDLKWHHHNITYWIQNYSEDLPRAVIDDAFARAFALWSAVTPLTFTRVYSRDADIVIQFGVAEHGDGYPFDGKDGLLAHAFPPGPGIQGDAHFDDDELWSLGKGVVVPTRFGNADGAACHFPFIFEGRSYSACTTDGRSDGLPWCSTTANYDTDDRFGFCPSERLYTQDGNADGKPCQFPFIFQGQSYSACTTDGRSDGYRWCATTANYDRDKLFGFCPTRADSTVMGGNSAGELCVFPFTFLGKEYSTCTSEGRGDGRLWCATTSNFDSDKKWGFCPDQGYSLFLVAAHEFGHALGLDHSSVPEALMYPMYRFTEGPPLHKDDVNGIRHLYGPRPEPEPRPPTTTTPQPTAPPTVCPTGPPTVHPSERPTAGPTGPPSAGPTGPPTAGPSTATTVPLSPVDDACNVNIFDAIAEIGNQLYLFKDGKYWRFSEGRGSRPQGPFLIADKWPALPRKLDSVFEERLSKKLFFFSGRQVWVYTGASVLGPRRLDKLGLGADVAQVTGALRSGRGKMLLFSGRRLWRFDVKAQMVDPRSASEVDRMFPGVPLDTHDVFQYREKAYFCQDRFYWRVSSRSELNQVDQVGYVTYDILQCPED

Compound | IC50 [1] | Ki [1] | IC50 [2] | Ki [2] | IC50 [3] | IC50 [4] | Ki [4] | IC50 [5] | Ki [5] | IC50 [6] | IC50 ([2]; read-out: IC50) [nM] | Ki ([2]; read-out: Ki) [nM] | Ki [3] | Ki [6]
Cc1nnc2n1-c1ccc(Cl)cc1C(c1ccccc1)=NC2 [ALPRAZOLAM] | Not Active | Not Active | Not Active | Not Active | Not Active | Not Active | Not Active | Not Active | Not Active | Not Active |  |  |  | 
COC(=O)CCc1ccc(OCC(O)CNC(C)C)cc1 (centres undefined) [ESMOLOL] | Not Active | Not Active | Not Active | Not Active | Not Active | Not Active | Not Active | Not Active | Not Active | Not Active |  |  |  | 
COc1ccc2cc3[n+](cc2c1OC)CCc1cc2c(cc1-3)OCO2.[Cl-] [BERBERINE CHLORIDE] | Not Active | Not Active |  |  | Not Active | Not Active | Not Active | Not Active | Not Active | Not Active | 1280 | 852 |  | 
NC(=O)C[S+]([O-])C(c1ccccc1)c1ccccc1 (centres undefined) [MODAFINIL] | Not Active | Not Active | Not Active | Not Active | Not Active | Not Active | Not Active | Not Active | Not Active | Not Active |  |  |  | 
CC(C)=CCC/C(C)=C/CO [GERANIOL] | Not Active | Not Active | Not Active | Not Active | Not Active | Not Active | Not Active | Not Active | Not Active | Not Active |  |  |  | 
NCCCC(O)(P(=O)(O)O)P(=O)(O)O [ALENDRONIC ACID] | Not Active | Not Active | Not Active | Not Active | Not Active | Not Active | Not Active | Not Active | Not Active | Not Active |  |  |  | 
C[C@@H]1CC[C@@]2(OC1)O[C@H]1[C@@H](O)[C@H]3[C@@H]4CC[C@H]5C[C@@H](O[C@@H]6O[C@H](CO)[C@H](O[C@@H]7O[C@H](CO)C(O)[C@H](O[C@@H]8OC[C@@H](O)[C@H](O)[C@H]8O)[C@H]7O[C@@H]7O[C@H](CO)[C@H](O)[C@H](O[C@@H]8O[C@H](CO)[C@@H](O)[C@H](O)[C@H]8O)[C@H]7O)[C@H](O)[C@H]6O)[C@H](O)C[C@]5(C)[C@H]4CC[C@]3(C)[C@H]1[C@@H]2C (some centres undefined) [DIGITONIN] | Not Active | Not Active | Not Active | Not Active | Not Active | Not Active | Not Active | Not Active | Not Active | Not Active |  |  |  | 
O=C1CN=C(c2ccccc2Cl)c2cc([N+](=O)[O-])ccc2N1 [CLONAZEPAM] | Not Active | Not Active | Not Active | Not Active | Not Active | Not Active | Not Active | Not Active | Not Active | Not Active |  |  |  | 
AURANOFIN | Not Active | Not Active | Not Active | Not Active | Not Active | Not Active | Not Active | Not Active | Not Active | Not Active |  |  | Not Active | Not Active
COC(=O)Nc1nc2ccc(C(=O)c3cccs3)cc2[nH]1 [NOCODAZOLE] | Not Active | Not Active | Not Active | Not Active | Not Active | Not Active | Not Active | Not Active | Not Active | Not Active |  |  |  | 
C[C@H]1O[C@@H](n2cc(F)c(=O)[nH]c2=O)[C@H](O)[C@@H]1O [DOXIFLURIDINE] | Not Active | Not Active | Not Active | Not Active | Not Active | Not Active | Not Active | Not Active | Not Active | Not Active |  |  |  | 
CC(C(=O)O)c1ccc2oc(-c3ccc(Cl)cc3)nc2c1 (centres undefined) [BENOXAPROFEN] | Not Active | Not Active | Not Active | Not Active | Not Active | Not Active | Not Active | Not Active | Not Active | Not Active |  |  |  | 
GADOPENTETATE DIMEGLUMINE | Not Active | Not Active | Not Active | Not Active | Not Active | Not Active | Not Active | Not Active | Not Active | Not Active |  |  | Not Active | Not Active
Nc1ccc2c3c(cccc13)C(=O)NC2=O | Not Active | Not Active | Not Active | Not Active | Not Active | Not Active | Not Active | Not Active | Not Active | Not Active |  |  |  | 
C[n+]1ccccc1/C=N/O.[Cl-] [PRALIDOXIME CHLORIDE] | Not Active | Not Active | Not Active | Not Active | Not Active | Not Active | Not Active | Not Active | Not Active | Not Active |  |  |  | 
NNc1nncc2ccccc12 [HYDRALAZINE] | Not Active | Not Active | Not Active | Not Active | Not Active | Not Active | Not Active | Not Active | Not Active | Not Active |  |  |  | 
O=c1cnn([C@@H]2O[C@H](CO)[C@@H](O)[C@H]2O)c(=O)[nH]1 [6-AZAURIDINE] | Not Active | Not Active | Not Active | Not Active | Not Active | Not Active | Not Active | Not Active | Not Active | Not Active |  |  |  | 
Cn1c(=O)c2c(ncn2CC(O)CO)n(C)c1=O (centres undefined) [DYPHYLLINE] | Not Active | Not Active | Not Active | Not Active | Not Active | Not Active | Not Active | Not Active | Not Active | Not Active |  |  |  | 
O=c1cc(N2CCOCC2)oc2c(-c3ccccc3)cccc12 [LY-294002] | Not Active | Not Active | Not Active | Not Active | Not Active | Not Active | Not Active | Not Active | Not Active | Not Active |  |  |  | 
C[C@@H]1C[C@H]2[C@@H]3CCC4=CC(=O)C=C[C@]4(C)[C@@]3(F)[C@@H](O)C[C@]2(C)[C@H]1C(=O)CO [DESOXIMETASONE] | Not Active | Not Active | Not Active | Not Active | Not Active | Not Active | Not Active | Not Active | Not Active | Not Active |  |  |  | 
CC(C)(C)NC(=O)[C@H]1CC[C@H]2[C@@H]3CC[C@H]4NC(=O)C=C[C@]4(C)[C@H]3CC[C@]12C [FINASTERIDE] | Not Active | Not Active | Not Active | Not Active | Not Active | Not Active | Not Active | Not Active | Not Active | Not Active |  |  |  | 
